In PubChem BioAssay AID1117324 (Cheminformatics & Chemogenomics Research Group (CCRG), …, 2015):
The source made the active and inactive calls. The rule behind the calls is not given here.

test system: VEGF-stimulated ADSC/ECFC co-culture, nuclear area imaging; experiment: nuclear area loss in endothelial-stromal co-culture, dose response, cell-based, VEGF stimulation, IC50 (AID 1117324)

SMILES | IC50
CCc1c2c(nc3ccc(OC(=O)N4CCC(N5CCCCC5)CC4)cc13)-c1cc3c(c(=O)n1C2)COC(=O)[C@]3(O)CC | 8.12 µM (inactive)
Cc1ccc([N+](=O)[O-])[c]2c1[O][Hg]2 | 1.09 µM
O=C(Nc1ccc(Br)cc1)c1cc(Br)c(Br)s1 | > 10 µM (inactive)
CCN[C@@H](C)Cc1cccc(C(F)(F)F)c1 | > 10 µM (inactive)
C[n+]1cc2c3c(ccc2c2ccc4cc5c(cc4c21)OCO5)OCO3 | 0.97 µM
O=c1oc2c(O)c(O)cc3c(=O)oc4c(O)c(O)cc1c4c23 | > 10 µM (inactive)
CCCCC(CC)COC(=O)C(C#N)=C(c1ccccc1)c1ccccc1 (configuration not stated) | 3.29 µM
COCCOC(=O)C1=C(C)NC(C)=C(C(=O)OC/C=C/c2ccccc2)C1c1cccc([N+](=O)[O-])c1 (configuration not stated) | > 10 µM (inactive)
COc1ccc(Cc2nccc3cc(OC)c(OC)cc23)cc1OC | > 10 µM (inactive)
NC(=O)C1(N2CCCCC2)CCN(CCCN2c3ccccc3CCc3ccc(Cl)cc32)CC1 | > 10 µM (inactive)
CCOC(=O)C1=C(C)NC(C)=C(C(=O)OCC)C1c1ccccc1/C=C/C(=O)OC(C)(C)C | > 10 µM (inactive)
Cc1c(C)c2c(c(C)c1O)CC[C@@](C)(CCC[C@H](C)CCC[C@H](C)CCCC(C)C)O2 | > 10 µM (inactive)
C[C@H](O)CN(C)C | > 10 µM (inactive)
CN(Cc1cnc2nc(N)nc(N)c2n1)c1ccc(C(=O)N[C@@H](CCC(=O)O)C(=O)O)cc1 | > 10 µM (inactive)
O=c1c(-c2ccc(O)cc2)coc2cc(O)cc(O)c12 | > 10 µM (inactive)
CN1CCCC(CC2c3ccccc3Sc3ccccc32)C1 (configuration not stated) | > 10 µM (inactive)
CC[C@]1(O)C[C@@H]2CN(CCc3c([nH]c4ccccc34)[C@@](C(=O)OC)(c3cc4c(cc3OC)N(C)[C@H]3[C@@](O)(C(=O)OC)[C@H](OC(C)=O)[C@]5(CC)C=CCN6CC[C@]43[C@@H]65)C2)C1 | > 10 µM (inactive)
COc1ccc2c(c1)c1c3n2CCN(C)C3=NCC1 | > 10 µM (inactive)
COc1cc(C=C2CCC/C(=C\c3ccc(O)c(OC)c3)C2=O)ccc1O | 6.98 µM (inactive)
O=C1C(I)=CC(=C(c2cc(I)c(O)c(I)c2)c2ccccc2C(=O)O)C=C1I | > 10 µM (inactive)
CN(C)c1ccc(C(=C2C=CC(=[N+](C)C)C=C2)c2ccccc2)cc1 | 1.72 µM
CC[C@]1(O)C[C@H]2CN(CCc3c([nH]c4ccccc34)[C@@](C(=O)OC)(c3cc4c(cc3OC)N(C=O)[C@H]3[C@@](O)(C(=O)OC)[C@H](OC(C)=O)[C@]5(CC)C=CCN6CC[C@]43[C@@H]65)C2)C1 | > 10 µM (inactive)
CCCCCCCCCCCCCCCCCCOP(=O)([O-])OC1CC[N+](C)(C)CC1 | > 10 µM (inactive)

SMILES | IC50
NCCNc1ccc(NCCN)c2c1C(=O)c1ccncc1C2=O | > 10 µM (inactive)
Cc1ccc(Nc2nccc(N(C)c3ccc4c(C)n(C)nc4c3)n2)cc1S(N)(=O)=O | > 10 µM (inactive)
COC(=O)C(Cl)C(=O)OC | > 10 µM (inactive)
CCC(C(=O)OCCOCCN(CC)CC)c1ccccc1 (configuration not stated) | > 10 µM (inactive)
CCCCCCCCCCCCCCCC[n+]1ccccc1 | 3.01 µM
Nc1nc(F)nc2c1ncn2[C@@H]1O[C@H](CO)[C@@H](O)[C@@H]1O | > 10 µM (inactive)
CN(C)C(=O)Oc1cccc([N+](C)(C)C)c1 | > 10 µM (inactive)
CCCOC(=O)c1cc(O)c(O)c(O)c1 | > 10 µM (inactive)
CC(=O)[C@]1(O)Cc2c(O)c3c(c(O)c2[C@@H](O[C@H]2C[C@H](N)[C@H](O)[C@H](C)O2)C1)C(=O)c1ccccc1C3=O | 0.538 µM
COC(=O)Nc1nc2ccc(C(=O)C3CC3)cc2[nH]1 | > 10 µM (inactive)
CCCCCCCCCCCCCCCC[N+](C)(C)CCN(Cc1ccc(OC)cc1)c1ncccn1 | > 10 µM (inactive)
CC[N+](CC)(CC)CCOc1ccc(/C=C/c2ccccc2)cc1 | > 10 µM (inactive)
CCCCCCCCCCCC[N+](C)(C)Cc1ccccc1 | 6.93 µM (inactive)
CC(C)(C)C(=O)OCOP(=O)(COCCn1cnc2c(N)ncnc21)OCOC(=O)C(C)(C)C | > 10 µM (inactive)
Oc1ccc(O)cc1 | > 10 µM (inactive)
COC(=O)Nc1nc2ccc(C(=O)c3ccccc3)cc2[nH]1 | > 10 µM (inactive)
CN1CCN(C2Cc3ccccc3Sc3ccc(Cl)cc32)CC1 (configuration not stated) | > 10 µM (inactive)
O=NN(CCCl)C(=O)NC1CCCCC1 | > 10 µM (inactive)
CC(C)=CCOc1ccc(/C=C/C(=O)c2ccc(OCC=C(C)C)cc2OCC(=O)O)cc1 | > 10 µM (inactive)
[O-][n+]1ccccc1SSc1cccc[n+]1[O-] | 1.79 µM
Oc1ccc(/C=C/c2cc(O)cc(O)c2)cc1 | > 10 µM (inactive)
COc1ccc(/C=C/C(=O)c2ccc(OC)cc2OC)cc1 | > 10 µM (inactive)
Cc1c(O)cccc1C(=O)N[C@@H](CSc1ccccc1)[C@H](O)CN1C[C@H]2CCCC[C@H]2C[C@H]1C(=O)NC(C)(C)C | > 10 µM (inactive)

SMILES | IC50
O=C(OCCO)c1ccccc1O | > 10 µM (inactive)
Nc1ncn([C@@H]2O[C@H](CO)[C@@H](O)[C@H]2O)c(=O)n1 | > 10 µM (inactive)
O=C(CCBr)N1CCN(C(=O)CCBr)CC1 | > 10 µM (inactive)
CCCCCCCCCCCCCCCCNc1ccc(C(=O)O)cc1 | > 10 µM (inactive)
O=C(OCc1ccccc1)c1cccnc1 | > 10 µM (inactive)
CCCCCCCCCCCC(=O)[O][Sn]([CH2]CCC)([CH2]CCC)[O]C(=O)CCCCCCCCCCC | > 10 µM (inactive)
C[C@@H](NCCCc1cccc(C(F)(F)F)c1)c1cccc2ccccc12 | > 10 µM (inactive)
C=C(C)[C@H]1Cc2c(ccc3c2O[C@@H]2COc4cc(OC)c(OC)cc4[C@@H]2C3=O)O1 | > 10 µM (inactive)
Oc1c(I)cc(Cl)c2cccnc12 | > 10 µM (inactive)
CC(=O)Oc1ccc(C2(c3ccc(OC(C)=O)cc3)Oc3ccccc3NC2=O)cc1 | > 10 µM (inactive)
O[C@@H](CNC[C@H](O)[C@H]1CCc2cc(F)ccc2O1)[C@@H]1CCc2cc(F)ccc2O1 | > 10 µM (inactive)
CN(C)/N=N/c1nc[nH]c1C(N)=O | > 10 µM (inactive)
O=C(Nc1ccc(Cl)cc1)Nc1ccc(Cl)c(Cl)c1 | > 10 µM (inactive)
O=C(O)CCC(=O)OC[C@@H](NC(=O)C(Cl)Cl)[C@H](O)c1ccc([N+](=O)[O-])cc1 | > 10 µM (inactive)
NC(=O)c1cccnc1 | > 10 µM (inactive)
CC1(C)[C@H](C=C(Cl)Cl)[C@@H]1C(=O)OCc1c(F)c(F)cc(F)c1F | > 10 µM (inactive)
CO[C@H]1O[C@@H]2O[C@@]3(C)CC[C@H]4[C@H](C)CC[C@@H]([C@@H]1C)[C@@]24OO3 | > 10 µM (inactive)
Clc1ccc(CO/N=C(\Cn2ccnc2)c2ccc(Cl)cc2Cl)c(Cl)c1 | 8.85 µM (inactive)
c1ccc2c(c1)Sc1ccccc1N2CC1CN2CCC1CC2 (configuration not stated) | > 10 µM (inactive)
O=C1CC[C@H](C(=O)N2CCCCC2)N1 | > 10 µM (inactive)
COC(=O)Nc1nc2ccc(Sc3ccccc3)cc2[nH]1 | > 10 µM (inactive)
CC(=O)N(CC(O)CN(C(C)=O)c1c(I)c(C(=O)NCC(O)CO)c(I)c(C(=O)NCC(O)CO)c1I)c1c(I)c(C(=O)NCC(O)CO)c(I)c(C(=O)NCC(O)CO)c1I (configuration not stated) | > 10 µM (inactive)
CC(C)Cn1cnc2c1c(=O)n(C)c(=O)n2C | > 10 µM (inactive)

SMILES | IC50
CC(=O)Oc1cccc2c1C(=O)c1c(OC(C)=O)cc(C(=O)O)cc1C2=O | > 10 µM (inactive)
ClC1=C(Cl)C2(Cl)C(CBr)CC1(Cl)C2(Cl)Cl (configuration not stated) | 9.97 µM (inactive)
COC1=C(OC)C(=O)C(CCCCCCCCCCO)=C(C)C1=O | > 10 µM (inactive)
C[C@@H]1C[C@H]2[C@@H]3CCC4=CC(=O)C=C[C@]4(C)[C@@]3(Cl)[C@@H](O)C[C@]2(C)[C@@]1(OC(=O)c1ccco1)C(=O)CCl | > 10 µM (inactive)
COC(=O)CCCCC(CCSS/C(CCO)=C(\C)N(C=O)Cc1cnc(C)nc1N)SC(C)=O (configuration not stated) | > 10 µM (inactive)
CC(=O)O[C@H]1C[C@H](O[C@H]2[C@@H](O)C[C@H](O[C@@H]3[C@@H](O)C[C@H](O[C@H]4CC[C@@]5(C)[C@H](CC[C@@H]6[C@H]5C[C@@H](O)[C@]5(C)[C@@H](C7=CC(=O)OC7)CC[C@]65O)C4)O[C@@H]3C)O[C@@H]2C)O[C@H](C)[C@H]1O[C@@H]1O[C@H](CO)[C@@H](O)[C@H](O)[C@@H]1O | 0.279 µM
C/C(=N\O)[C@@H](C)NCC(C)(C)CN[C@H](C)/C(C)=N/O | > 10 µM (inactive)
CN[C@@H]1C[C@@H](c2ccc(Cl)c(Cl)c2)c2ccccc21 | > 10 µM (inactive)
Cc1nc2ccc(CN(C)c3ccc(C(=O)N[C@@H](CCC(=O)O)C(=O)O)s3)cc2c(=O)[nH]1 | > 10 µM (inactive)
OCCN1CCN(CCCN2c3ccccc3Sc3ccc(Cl)cc32)CC1 | > 10 µM (inactive)
C=CC(C)(O)CCC=C(C)CCC=C(C)C (configuration not stated) | > 10 µM (inactive)
CCCCCCCC(=O)OCC(COC(=O)CCCCCCC)OC(=O)CCCCCCC | > 10 µM (inactive)
COC(=O)Nc1nc2ccc(S(=O)c3ccccc3)cc2[nH]1 (configuration not stated) | > 10 µM (inactive)
CO[C@@]12[C@H](COC(N)=O)C3=C(C(=O)C(C)=C(N)C3=O)N1C[C@@H]1N[C@@H]12 | 5.96 µM (inactive)
CN1CCC[C@@H]1CCO[C@](C)(c1ccccc1)c1ccc(Cl)cc1 | > 10 µM (inactive)
Cc1ccc(C(=O)Oc2ccc(C(O)CNC(C)(C)C)cc2OC(=O)c2ccc(C)cc2)cc1 (configuration not stated) | > 10 µM (inactive)
Cc1cc(=O)c2c(O)c3c(O)cc(=O)c4c3c3c(cc(O)c1c23)C(C)(C)C=4O | 2.07 µM
CC(C(O)c1ccccc1)N(C)C/C=C/c1ccccc1 (configuration not stated) | > 10 µM (inactive)
CCc1oc2ccccc2c1C(=O)c1cc(I)c(O)c(I)c1 | > 10 µM (inactive)
CCCCc1oc2ccc(NS(C)(=O)=O)cc2c1C(=O)c1ccc(OCCCN(CCCC)CCCC)cc1 | 7.56 µM (inactive)
CCCCC(CC)COC(=O)CC(C(=O)OCC(CC)CCCC)S(=O)(=O)O (configuration not stated) | > 10 µM (inactive)
CN1CCN(c2cc3c(nn2)Oc2ccccc2N3C)CC1 | > 10 µM (inactive)
CCCCCCNC(=O)n1cc(F)c(=O)[nH]c1=O | > 10 µM (inactive)
